Laboratory results: US10774083B2, “Heterocyclic amide compound” (TAKEDA PHARMACEUTICAL COMPANY LIMITED, priority 2016, dated 2020)

Assays:
[1] = target: T1, human PRS protein (His-Avi-hEPRS (998-1512)) (Homo sapiens, UniProt P07814); assay: PRS inhibitory activity ([32P]pyrophosphate exchange enzyme assay); assay type: biochemical; settings: 300 nM test compound; read-out: inhibitory rate (%) of PRS
T1 construct: to construct His-Avi-hEPRS (998-1512) expression plasmid; His tag (N); Avi tag (N); TEV cleavage site (ENLYFQG, then S; inferred from the forward primer hEPRS-TEV-NheF) (N); made in house; host or cells: E. coli BL21(DE3)
T1 sequence (P07814 998-1512 limits assumed): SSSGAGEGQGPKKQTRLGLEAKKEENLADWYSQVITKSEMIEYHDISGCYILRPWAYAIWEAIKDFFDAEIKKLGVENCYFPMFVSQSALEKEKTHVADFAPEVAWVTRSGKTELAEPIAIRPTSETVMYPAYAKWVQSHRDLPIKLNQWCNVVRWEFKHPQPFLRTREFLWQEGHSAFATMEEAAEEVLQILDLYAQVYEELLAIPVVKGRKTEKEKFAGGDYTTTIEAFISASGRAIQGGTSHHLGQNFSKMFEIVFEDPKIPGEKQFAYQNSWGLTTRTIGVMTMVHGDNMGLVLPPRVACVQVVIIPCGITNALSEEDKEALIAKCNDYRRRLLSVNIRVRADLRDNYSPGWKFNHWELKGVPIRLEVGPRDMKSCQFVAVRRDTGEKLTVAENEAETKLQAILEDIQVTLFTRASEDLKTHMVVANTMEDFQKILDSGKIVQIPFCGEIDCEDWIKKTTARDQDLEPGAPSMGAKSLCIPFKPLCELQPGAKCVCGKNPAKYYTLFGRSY
In short: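 Compound was pre-incubated 60 min with 40 nM His-Avi-hEPRS (998-1512) (stock, E. coli-expressed) in Tris pH 7.5/KCl/DTT/Tween/MgCl2. Reaction began with substrate mix containing 300 μM ATP, 160 μM L-proline, 400 μM [32P]pyrophosphate (stock levels) and ran 30 min at room temperature. Charcoal-bound radioactivity was counted; inhibition was relative to no-reaction control.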

[2] = system: human ovarian cancer cells A2780; assay: proliferation inhibitory activity against human ovarian cancer cell A2780 (CellTiter-Glo); assay type: cell-based; settings: A2780, 72 h, 1 μM test compound, 3 days of culture, read-out: proliferation inhibitory rate (%) of A2780 cells
In short: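 A2780 cells in RPMI-1640 with 10% FBS, compound added the day after seeding and cultured 3 days. Viability by CellTiter-Glo luminescence. Inhibition (%) calculated with cell-free wells as 100% inhibition.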

[3] = system: human fibrosarcoma cell line HT-1080; assay: antitumor action on mice transplanted with human fibrosarcoma cell line HT-1080; assay type: in vivo, mouse; settings: HT-1080, 10 mg/kg orally, once per day, 11 days
Procedure: An antitumor action of the compound of the present invention on mice transplanted with human malignant melanoma cell line SKMEL-2 and human fibrosarcoma cell line HT-1080 was evaluated by the following method.
Human fibrosarcoma cell line HT-1080 was subcutaneously transplanted by injection into 7-week-old BALB/cA Jcl-nu/nu female mouse (CLEA Japan, Inc.) by 7.5×10^6 cells. At 8 days from transplantation, the tumor diameter of the engrafted tumor was measured and the tumor volume was calculated by the following formula. tumor volume=major axis×minor axis×minor axis×(½)
Individuals having a tumor volume of 100 to 300 mm^3 were selected for SKMEL-2, and individuals having a tumor volume of 200 to 400 mm^3 were selected for HT-1080, and 4 or 5 mice per group were used for the experiment. A 0.5% methylcellulose suspension of the test compound was orally administered to the mice at the dose (dose per administration), administration frequency and dosing period shown in Table 3. The tumor diameter was measured one day before the start of administration and one day after completion of administration and the tumor volume was calculated.
The tumor proliferation rate (T/C (%)) of the test compound administration group in comparison with the control administration group was calculated by the following formula. […]

Cn1cc(-c2cc(F)cc(CNC(=O)c3ncnc4nc(C5COCCO5)[nH]c34)c2)cn1 (stereo not drawn) [Example 32, 8-(1,4-dioxan-2-yl)-N-(3-fluoro-5-(1-methyl-1H-pyrazol-4-yl)benzyl)-7H-purine-6-carboxamide]
inhibition at 0.3 µM [1]: 101% | inhibition at 1 µM [2]: 76% | T/C (%) tumor proliferation rate [3]: -8.2%
